Laboratory results reported in patent publication US12570662B2, “Substituted pyrrolo[1,2-b]pyridazines as bifunctional degraders of interleukin-1 receptor-associated kinases” (Nurix Therapeutics, Inc., priority 2021, dated 2026).

Molecular target: T1, IRAK4 (Homo sapiens, UniProt Q9NWZ3)
T1 construct: C-terminal HiBiT-tagged Jurkat cells (polyclonal cell line or clone 8D5); endogenous in cells; host or cells: Jurkat cells (polyclonal cell line or clone 8D5), HiBiT-tagged
T1 sequence (Q9NWZ3 1-460): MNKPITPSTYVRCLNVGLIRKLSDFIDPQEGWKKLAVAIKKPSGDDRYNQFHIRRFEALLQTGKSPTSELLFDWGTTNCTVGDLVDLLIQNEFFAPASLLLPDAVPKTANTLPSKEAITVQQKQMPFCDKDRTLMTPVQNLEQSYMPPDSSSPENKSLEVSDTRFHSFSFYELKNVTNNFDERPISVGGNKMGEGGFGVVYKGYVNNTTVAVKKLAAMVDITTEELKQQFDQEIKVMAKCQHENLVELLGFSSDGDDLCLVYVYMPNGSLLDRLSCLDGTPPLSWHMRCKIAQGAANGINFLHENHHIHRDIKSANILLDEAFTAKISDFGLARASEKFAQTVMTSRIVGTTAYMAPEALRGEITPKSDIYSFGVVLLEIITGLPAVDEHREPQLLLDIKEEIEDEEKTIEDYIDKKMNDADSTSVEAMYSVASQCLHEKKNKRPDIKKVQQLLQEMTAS
Assay: IRAK4 Degradation HiBit Assay
Type: cell-based
Conditions: C-terminal HiBiT-tagged Jurkat cells, 4 hrs incubation; for DC50: % IRAK4 remaining, four-parameter fit (IC50 used as DC50); for Dmax: from fit of % IRAK4 remaining, read-out: Dmax
Procedure, shortened: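 Degradation was quantified by luminescence after adding lytic detection reagent containing LgBiT to HiBiT-tagged Jurkat cells (polyclonal or clone 8D5). Cells were treated 4 h at 32 °C across 11 concentrations from 10 μM to 0.1 nM final. Four-parameter curve fitting of % IRAK4 remaining versus DMSO gave DC50 and Dmax.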

SMILES	DC50 [nM]	Dmax [%]
N#Cc1cnn2c(-c3cc(NC4CCC4)c(-c4nnc(N5CC6CCC(C5)N6CC5CCN(c6ccc([C@H]7CCC(=O)NC7=O)cn6)CC5)s4)cn3)ccc2c1 (racemic) [Example 96, rac-7-[4-(cyclobutylamino)-5-(5-{8-[(1-{5-[(3R)-2,6-dioxopiperidin-3-yl]pyridin-2-yl}piperidin-4-yl)methyl]-3,8-diazabicyclo[3.2.1]octan-3-yl}-1,3,4-thiadiazol-2-yl)pyridin-2-yl]pyrrolo[1,2-b]pyridazine-3-carbonitrile]	83	103
N#Cc1cnn2c(-c3cc(NC4CCC(F)(F)CC4)c(-c4nnc(N5CCN(CC6CCN(c7ccc(C8CCC(=O)NC8=O)cn7)CC6)CC5)s4)cn3)ccc2c1 (racemic) [Example 1, rac-7-{4-[(4,4-difluorocyclohexyl)amino]-5-(5-{4-[(1-{5-[(3R)-2,6-dioxopiperidin-3-yl]pyridin-2-yl}piperidin-4-yl)methyl]piperazin-1-yl}-1,3,4-thiadiazol-2-yl)pyridin-2-yl}pyrrolo[1,2-b]pyridazine-3-carbonitrile]	860	96
N#Cc1cnn2c(-c3cc(NC4CC4)c(-c4nnc(N5CCN(CC6CCN(c7ccc(N8CCC(=O)NC8=O)cn7)CC6)CC5)s4)cn3)ccc2c1 [Example 78, 7-[4-(cyclopropylamino)-5-{5-[4-({1-[5-(2,4-dioxo-1,3-diazinan-1-yl)pyridin-2-yl]piperidin-4-yl}methyl)piperazin-1-yl]-1,3,4-thiadiazol-2-yl}pyridin-2-yl]pyrrolo[1,2-b]pyridazine-3-carbonitrile]	19	111
N#Cc1cnn2c(-c3cc(NC4COC4)c(-c4nnc(N5CCN(CC6CCN(c7ccc(C8CCC(=O)NC8=O)cn7)CC6)CC5)s4)cn3)ccc2c1 (racemic) [Example 61, rac-7-[5-(5-{4-[(1-{5-[(3R)-2,6-dioxopiperidin-3-yl]pyridin-2-yl}piperidin-4-yl)methyl]piperazin-1-yl}-1,3,4-thiadiazol-2-yl)-4-[(oxetan-3-yl)amino]pyridin-2-yl]pyrrolo[1,2-b]pyridazine-3-carbonitrile]	18	111
CNc1cc(-c2ccc3cc(C#N)cnn23)ncc1-c1nnc(N2CCC(C3CCN(CC4CCN(c5ccc(C6CCC(=O)NC6=O)cn5)CC4)CC3)CC2)s1 (racemic) [Example 54, rac-7-[5-(5-{1′-[(1-{5-[(3R)-2,6-dioxopiperidin-3-yl]pyridin-2-yl}piperidin-4-yl)methyl]-[4,4′-bipiperidin]-1-yl}-1,3,4-thiadiazol-2-yl)-4-(methylamino)pyridin-2-yl]pyrrolo[1,2-b]pyridazine-3-carbonitrile]	95	112
N#Cc1cnn2c(-c3cc(NC4CC4)c(-c4nnc(N5CC6CCC(C5)N6CC5CCN(c6ccc(N7CCC(=O)NC7=O)cn6)CC5)s4)cn3)ccc2c1 [Example 115, 7-[4-(cyclopropylamino)-5-{5-[8-({1-[5-(2,4-dioxo-1,3-diazinan-1-yl)pyridin-2-yl]piperidin-4-yl}methyl)-3,8-diazabicyclo[3.2.1]octan-3-yl]-1,3,4-thiadiazol-2-yl}pyridin-2-yl]pyrrolo[1,2-b]pyridazine-3-carbonitrile]	48	109
N#Cc1cnn2c(-c3cc(NC4CCOCC4)c(-c4nnc(N5CCN(C(=O)CN6CCc7cc(C8CCC(=O)NC8=O)ccc7C6)CC5)s4)cn3)ccc2c1 (racemic) [Example 66, rac-7-(5-{5-[4-(2-{6-[(3R)-2,6-dioxopiperidin-3-yl]-1,2,3,4-tetrahydroisoquinolin-2-yl}acetyl)piperazin-1-yl]-1,3,4-thiadiazol-2-yl}-4-[(oxan-4-yl)amino]pyridin-2-yl)pyrrolo[1,2-b]pyridazine-3-carbonitrile]	8	110
CC(C)Nc1cc(-c2ccc3cc(C#N)cnn23)ncc1-c1nnc(N2CCN(C(=O)C3CCN(c4ccc(C5CCC(=O)NC5=O)cn4)CC3)CC2)s1 (racemic) [Example 48, rac-7-(5-{5-[4-(1-{5-[(3R)-2,6-dioxopiperidin-3-yl]pyridin-2-yl}piperidine-4-carbonyl)piperazin-1-yl]-1,3,4-thiadiazol-2-yl}-4-[(propan-2-yl)amino]pyridin-2-yl)pyrrolo[1,2-b]pyridazine-3-carbonitrile]	23	109
N#Cc1cnn2c(-c3cc(N[C@@H]4CCOC4)c(-c4nnc(N5CC6CCC(C5)N6CC5CCN(c6ccc([C@@H]7CCC(=O)NC7=O)cc6)CC5)s4)cn3)ccc2c1 (single isomer, unassigned) [Example 131]	21	110

Next, values leading:

DC50 [nM]	Dmax [%]	SMILES
120	80	N#Cc1cnn2c(-c3cc(NC4CCOCC4)c(-c4nnc(C56CCC(CN7CCN(c8ccc(C9CCC(=O)NC9=O)cn8)CC7)(CC5)CC6)s4)cn3)ccc2c1 (racemic) [Example 26, rac-7-[5-(5-{4-[(4-{5-[(3R)-2,6-dioxopiperidin-3-yl]pyridin-2-yl}piperazin-1-yl)methyl]bicyclo[2.2.2]octan-1-yl}-1,3,4-thiadiazol-2-yl)-4-[(oxan-4-yl)amino]pyridin-2-yl]pyrrolo[1,2-b]pyridazine-3-carbonitrile]
21	115	CNc1cc(-c2ccc3cc(C#N)cnn23)ncc1-c1nnc(N2CCN(CC3CCN(c4ccc(C5CCC(=O)NC5=O)cc4)CC3)CC2)s1 (racemic) [Example 79, rac-7-[5-(5-{4-[(1-{4-[(3R)-2,6-dioxopiperidin-3-yl]phenyl}piperidin-4-yl)methyl]piperazin-1-yl}-1,3,4-thiadiazol-2-yl)-4-(methylamino)pyridin-2-yl]pyrrolo[1,2-b]pyridazine-3-carbonitrile]
1050	83	CNc1cc(-c2ccc3cc(C#N)cnn23)ncc1-c1nnc(N2CCN(CC3CCN(c4ccc([C@H]5CCC(=O)NC5=O)cn4)CC3)CC2)s1 (single isomer, unassigned) [Example 41]
29	95	N#Cc1cnn2c(-c3cc(NC4CCOCC4)c(-c4nnc(C56CCC(C(=O)N7CCc8cc(N9CCC(=O)NC9=O)ccc8C7)(CC5)CC6)s4)cn3)ccc2c1 [Example 63, 7-[5-(5-{4-[6-(2,4-dioxo-1,3-diazinan-1-yl)-1,2,3,4-tetrahydroisoquinoline-2-carbonyl]bicyclo[2.2.2]octan-1-yl}-1,3,4-thiadiazol-2-yl)-4-[(oxan-4-yl)amino]pyridin-2-yl]pyrrolo[1,2-b]pyridazine-3-carbonitrile]
12	100	N#Cc1cnn2c(-c3cc(NC4CCOCC4)c(-c4nnc(N5CCN(C(=O)[C@H]6CCN(c7ccc([C@@H]8CCC(=O)NC8=O)cn7)C6)CC5)s4)cn3)ccc2c1 (racemic) [Example 17, 7-[5-(5-{4-[(3RS)-1-{5-[(3RS&)-2,6-dioxopiperidin-3-yl]pyridin-2-yl}pyrrolidine-3-carbonyl]piperazin-1-yl}-1,3,4-thiadiazol-2-yl)-4-[(oxan-4-yl)amino]pyridin-2-yl]pyrrolo[1,2-b]pyridazine-3-carbonitrile]
